# Experimental data: patent US20100311608A1, “METHOD TO PREPARE MAGNETIC BEADS CONJUGATED WITH SMALL COMPOUNDS” (RIKEN, priority 2009, published 2010)
# Tested on: THP-1 cells
# Experiment: Amount of TNF-α released from THP-1 cells
# Type: cell-based, human
# Details: free body, 37° C. for 4 hours, FIG. 8
# Description: Human monocyte leukemia-derived THP-1 cells (ATCC) were cultured in an RPMI1640 medium (Invitrogen/GIBCO). To the medium, 10% fetal bovine serum (JRH Bioscience), 1 mM sodium pyruvate (Invitrogen/GIBCO), 100 units/mL penicillin, and 100 μg/mL streptomycin (Invitrogen/GIBCO) were added.
# (1) The cultured Jurkat cells, derived from human T-lymphocyte leukemia cells, were recovered (1×10^6/mL), and the thus recovered cells were then centrifuged at 1000 rpm for 10 minutes. (2) After a supernatant had been removed, the residue was washed with PBS (137 mM NaCl, 3 mM KCl, 9 mM NaHPO4, 1.5 mM KH2PO4, pH 7.4). (3) The cells were suspended in 300 μL of Binding buffer ([…] Tris-HCl, 150 mM NaCl, protease inhibitor cocktail, pH 7.5). (4) The cells were disintegrated by an ultrasonic wave treatment, and the disintegration of the cells was then observed under a microscope. […] (6) The protein concentration in the cell extract of the supernatant was measured, and the extract was then diluted with Lysis buffer (137 mM NaCl, 3 mM KCl, 9 mM NaHPO4, 1.5 mM KH2PO4, protease inhibitor cocktail, pH 7.4), resulting in a final protein concentration of 5 mg/mL. […] The amount of TNF-α contained in this supernatant was measured. […] (9) 50 μL of Stop solution was added to the resultant, and the absorption spectrum at 450 nm was then measured. […]
substance,measurement,value
Lipid A,responsiveness in the THP cells (TNF-α release),not so high
